According to patent US8937096B2, “Use of benzo-fused heterocyle sulfamide derivatives for the treatment of mania and bipolar disorder” (priority 2005, dated 2015):
“Also recorded” adds a separate entry of the source.

System: submissive rats
Assay: Dominant-Submissive Relations (DSR) assay: Reduction of Submissive Behavior Model (RSBM) of depression
Assay type: in vivo, rat
Protocol: The DSR assay is divided into two models: Reduction of Dominant Behavior Model (RDBM) of mania and Reduction of Submissive Behavior Model (RSBM) of depression. The RDBM, wherein the dominant animals are treated with test compound, is predictive of the ability of the test compound to treat mania. The RSBM, wherein the submissive animals are treated with test compound, is predictive of the ability of the test compound to treat depression.
Male Sprague Dawley rats (140 to 160 g) from Charles River Laboratories Wilmington, Mass. were used in this assay. Shipments of rats were received at two-week intervals. Each shipment went through five-day quarantine, one-week acclimation period, and one-week selection process, followed by five-weeks of drug or vehicle treatment to those pairs selected.
Rats were housed four per cage. Access to food was restricted to one hour per day after testing on Monday through Thursday. After testing on Friday, rats had free access to food until being fasted again on Sunday. At no time were the rats deprived of water. The food deprivation periods used had little effect on weight gain as the average weight of rats was about 300 g at the end of the study. At the conclusion of experiment rats were sacrificed by decapitation, the trunk blood and brains were collected for in vitro experiments and drug concentration measurements.
The basic testing apparatus consisted of two chambers connected with a tunnel only large enough to allow one rat to pass through at a time. On the floor, at the mid-point of the tunnel was a container of sweetened milk. This basic apparatus was replicated, so that a total of four pairs of rats can be video tracked simultaneously. The camera can distinguish rats marked by different colors. Thus, the rats' heads were colored for the purpose of video tracking, red in one cage and yellow in the other cage. Only one animal at a time can have comfortable access to the feeder, but both animals can drink milk during the five-minute daily session. During the five-minute daily sessions, time spent in the feeder zone by each rat was recorded by the video tracking software and saved into a text file.
The test began with a random assignment of rats into pairs. Each member of a pair was placed in an opposite chamber of the testing apparatus. The time spent in the feeder zone by each animal was recorded. During the first week (five days) of testing the animals habituate to the new environment. Dominance was assigned to the animal with the highest score during the second week of testing if three criteria were achieved. First, there must have been a significant difference (two-tailed t-test, P<0.05) between the average daily drinking scores of both animals. Second, the dominant animal score must have been at least 25% greater than the submissive animal's score. Finally, there must have been no “reversals” during the pair selection week where the putative submissive rat out-scored its dominant partner on isolated occasions. Ideally there were minimal reversals during the acclimation week as well. About twenty-five to thirty-three percent of the initial animal pairs achieved these criteria and only these pairs were continued in the study. […]
Significant differences between time spent on the feeder by dominant and submissive rats were determined by ANOVA using GraphPad Prism software (GraphPad Software, Inc. San Diego, Calif.) followed by a two-tailed t-test (P<0.05). Comparisons were made between treatment groups using normalized dominance level values in paired animals. The dominance level is a value that measures social relation between paired subjects. Dominance level (DL)=FTD−FTS where FTD is the feeder time of dominant rats and FTS is the feeder time of submissive rats. The normalization was conducted according to the formula: Dominance Level(week n in %)=(Dominance Level(week n))/(Dominance Level(week 2) […]

For `NS(=O)(=O)NC[C@H]1COc2cc(Cl)ccc2O1` [Compound #8, (2S)-(−)-N-(6-Chloro-2,3-dihydro-benzo[1,4]dioxin-2-ylmethyl)-sulfamide], the “loss of significance between dominant and submissive rats feeder time” value (2.5 mg/kg and 120.0 mg/kg p.o.) was “no consistent loss of significance”, the “Activity Onset Time at the 50% effect (AOT50)” value (2.5 mg/kg p.o.) was 2.1 days and the “Dominance Level (DL) values vs control” value (2.5 mg/kg p.o.) was “did not significantly differ from control”. For the same compound, the “maximum of the effect (non-linear regression), ± SEM” value (2.5 mg/kg p.o.) was 52.4±32.7%, the “Activity Onset Time at the 50% effect (AOT50)” value (12 mg/kg p.o.) was 5.3 days and the “maximum of the effect (non-linear regression), ± SEM” value (12 mg/kg p.o.) was 87.9±42.6%. For the same compound, the “Dominance Level (DL) values vs control” value (12.0 mg/kg p.o.) was “significantly different from vehicle treated controls after the second, fourth and fifth week of treatment”, the “first day of consistent lack of statistical significance between feeder time of dominant and submissive rats (activity onset time)” value (12.0 mg/kg p.o.) was 6 days and the “Activity Onset Time at the 50% effect (AOT50)” value (60 mg/kg p.o.) was 1.6 days. The “Dominance Level (DL) values vs control” value (60 mg/kg p.o.) was “significant difference in DL values relative to vehicle starting at the first week and continuing through the treatment duration of 5 weeks”, the “first day of consistent lack of statistical significance between feeder time of dominant and submissive rats (activity onset time)” value (60 mg/kg p.o.) was 4 days and the “maximum of the effect (non-linear regression), ± SEM” value (60 mg/kg p.o.) was 116.9±29.5%. For the same compound, the “Dominance Level (DL) values vs control” value (120 mg/kg p.o., significance dissipated after the second week) was “significantly different from the control group after first week”, the “submissiveness during first week of treatment” value (fluoxetine 10 mg/kg i.p., Compound #8 treated groups p.o.) was “did not show this effect” and the submissive behavior (p.o. once a day for 5 weeks, 2.5-120 mg/kg) was “reduce submissive behavior in a dose-dependent manner; also recorded: reduced submissive behavior”. For the same compound, the “Emax in the RSBM” value (p.o., calculated) was 131.4±4.7% and the “significant difference between dominant and submissive rats lost” value (submissive rats treated p.o., all doses used (2.5, 12, 60, 120 mg/kg)) was “lost after the first week of treatment”.
